Reference: ChEMBL document CHEMBL1201862, “PubChem BioAssay data set” (2004)
The source made the active and inactive calls.

Experiments:
Protein Wnt-3a = Protein Wnt-3a (Mus musculus, UniProt P27467); assay: SAR analysis of small molecule antagonists of Gli-SUFU in a Wnt3a luminescent reporter assay.; assay type: functional
[1] = biological target: SWI/SNF-related matrix-associated actin-dependent regulator of chromatin subfamily A member 2 (Homo sapiens, UniProt P51531); assay: Luminescence-based cell-based high throughput dose response assay to identify activators of the function of SWI/SNF related, matrix associated, actin dependent regulator of chromatin, subfamily a, member 2 (SMARCA2, BRM).; assay type: functional
[2] = Counterscreen for activators of the function of SWI/SNF related, matrix associated, actin dependent regulator of chromatin, subfamily a, member 2 (SMARCA2, BRM): Luminescence-based cell-based high throughput dose response assay to identify non-selective compounds using the VP16 reporter assay.; assay type: functional
[3] = rescue of ΔF508 CFTR function, airway epithelium – human bronchial epithelial cells, plate reader, cherry-pick, two tests, dose response (AID 743267); assay type: functional, cell-based
cells [4] = assay type: functional, cell-based
[5] = biological target: T1, Trace amine-associated receptor 1 (Homo sapiens, UniProt Q96RJ0); assay: Fluorescence-based cell-based high throughput dose response assay to identify agonists of the human trace amine associated receptor 1 (TAAR1).; assay type: functional
[6] = biological target: T1, Trace amine-associated receptor 1; assay: Counterscreen for agonists of the human trace amine associated receptor 1 (hTAAR1): Fluorescence-based cell-based high throughput dose response assay to identify hTAAR1 agonist that also desensitize TAAR1 receptor response.; assay type: functional
cells [7] = assay type: functional, cell-based; remark: listed apart in the source
[8] = T. cruzi growth inhibition in host cells, dose response, cell-based, plate reader, dry powder, set 2 (AID 652275); assay type: functional
Beta-galactosidase = Beta-galactosidase (Escherichia coli, UniProt Q8VNN2); assay: Dose response counterscreen for EBI2 assay utilizing the enzyme, b-galactosidase.; assay type: functional
[9] = biological target: T2, Scavenger receptor class B member 1 (Mus musculus, UniProt Q61009); assay: mouse SR-BI DiI-HDL transfer blockers – ldlA[mSR-BI] CHO cells, fluorescence plate reader, dry powder, set 9, dose response (AID 623880); assay type: functional, cell-based
T2 sequence (Q61009 whole entry): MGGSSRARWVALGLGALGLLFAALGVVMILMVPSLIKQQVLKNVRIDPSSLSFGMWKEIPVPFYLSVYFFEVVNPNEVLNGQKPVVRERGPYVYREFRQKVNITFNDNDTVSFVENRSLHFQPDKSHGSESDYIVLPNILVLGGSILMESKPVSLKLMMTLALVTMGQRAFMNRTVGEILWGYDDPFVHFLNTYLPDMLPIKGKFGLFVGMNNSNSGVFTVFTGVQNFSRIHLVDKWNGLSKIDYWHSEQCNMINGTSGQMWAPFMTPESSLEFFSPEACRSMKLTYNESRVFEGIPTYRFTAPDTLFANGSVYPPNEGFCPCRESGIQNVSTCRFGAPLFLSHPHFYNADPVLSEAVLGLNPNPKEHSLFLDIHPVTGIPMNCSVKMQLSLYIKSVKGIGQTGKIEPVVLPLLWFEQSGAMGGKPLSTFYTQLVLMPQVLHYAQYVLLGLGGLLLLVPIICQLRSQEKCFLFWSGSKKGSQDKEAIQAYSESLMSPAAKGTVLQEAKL

[10] = biological target: T2, Scavenger receptor class B member 1; assay: blockers of DiI-HDL lipid transfer via SR-BI – cell-based, ldlA[mSR-BI] CHO, DiI fluorescence, dry powder, set 10, dose response (AID 624029); assay type: functional
[11] = NIH-3T3 fibroblast cytotoxicity, dose response, cytotoxicity control, cell-based, fluorescence, Alamar Blue, secondary assay (AID 2327); assay type: functional;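 note: NIH-3T3 mouse fibroblasts cultured with fluconazole at 8 µg/mL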
[12] = fluconazole-exposed Candida albicans growth modulators – fluorescence, retest, confirmation (AID 2467); assay type: functional, cell-based
Nonstructural protein 1 = Nonstructural protein 1 (Influenza A virus, UniProt Q194T2); assay type: functional, Influenza A virus (A/California/07/2009(H1N1))
[13] = biological target: Matrix metalloproteinase-14 (Homo sapiens, UniProt P50281); assay: Dose Response confirmation of uHTS hits for a small molecule inhibitors of MT1-MMP activation in a fluorescence assay set 2.; assay type: functional
[14] = potency of ADAM10 substrate cleavage blockers – biochemical, QFRET, dose response (AID 743254);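 note: ADAM10 enzyme with the DM2 quenched FRET peptide as substrate; EDANS fluorescence gain as the protease cuts the substrate; inhibitor potency against ADAM10 proteolytic activity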
[15] = biological target: Disintegrin and metalloproteinase domain-containing protein 17 (Homo sapiens, UniProt P78536); assay: inhibition of ADAM17 substrate cleavage – biochemical, quenched FRET substrate, counter-screen for ADAM10 exosite inhibitor project, dose response (AID 743253)
[16] = A Cell-Based Confirmatory Screen for Compounds that Inhibit VEEV, TC-83 (3).; assay type: functional
[17] = biological target: T3, Long-chain-fatty-acid--AMP ligase FadD28 (Mycobacterium tuberculosis, UniProt P9WQ59); assay: Fluorescence polarization aasay to screen for inhibitors that compete for the binding of FadD28 to a bisubstrate Measured in Biochemical System Using Plate Reader - 2147-01_Inhibitor_Dose_CherryPick_Activity.; assay type: functional, Mycobacterium tuberculosis H37Rv
T3 sequence (P9WQ59 whole entry): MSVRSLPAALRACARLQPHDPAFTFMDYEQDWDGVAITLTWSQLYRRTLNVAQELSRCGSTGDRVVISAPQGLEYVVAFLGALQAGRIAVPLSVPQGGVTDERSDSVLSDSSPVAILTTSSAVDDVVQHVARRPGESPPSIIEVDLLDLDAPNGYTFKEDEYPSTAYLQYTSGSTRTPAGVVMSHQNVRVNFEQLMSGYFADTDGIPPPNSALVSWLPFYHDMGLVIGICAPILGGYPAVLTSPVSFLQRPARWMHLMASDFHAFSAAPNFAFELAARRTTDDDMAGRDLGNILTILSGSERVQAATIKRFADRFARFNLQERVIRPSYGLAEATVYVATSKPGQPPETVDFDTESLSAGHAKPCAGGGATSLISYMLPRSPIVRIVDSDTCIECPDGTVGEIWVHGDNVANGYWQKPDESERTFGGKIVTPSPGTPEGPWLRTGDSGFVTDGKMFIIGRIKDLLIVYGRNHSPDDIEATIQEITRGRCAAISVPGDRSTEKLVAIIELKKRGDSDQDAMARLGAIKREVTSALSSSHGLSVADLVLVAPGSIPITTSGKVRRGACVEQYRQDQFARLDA

cells [18] = assay type: functional, cell-based; remark: listed apart in the source
[19] = biological target: Nuclear receptor subfamily 0 group B member 1 (Homo sapiens, UniProt P51843); assay type: functional, cell-based;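 note: HEK293T cells transfected with SF-1 and DAX-1 plus StAR promoter luciferase reporter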
HEK293 = assay: viability loss in HEK293T cells – cell-based, ATP luminescence, cherry-pick samples, cytotoxicity control, dose response (AID 687005); assay type: functional; conditions: Homo sapiens;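 note: cells exposed to compound for 48 hours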
[20] = HEK293 Cytotoxicity Assay Measured in Cell-Based System Using Plate Reader - 7071-01_Inhibitor_Dose_CherryPick_Activity_Set2.; assay type: functional
[21] = mouse embryonic fibroblast toxicity – cell-based, plate reader, dry powder, set 2, cytotoxicity control, dose response (AID 652280); assay type: functional; conditions: NIH3T3
A549 = assay: viability loss in A549 cells – cell-based, plate reader, cherry-pick samples, cytotoxicity control, dose response (AID 687028); assay type: functional; conditions: Homo sapiens

T1 sequence (Q96RJ0 whole entry): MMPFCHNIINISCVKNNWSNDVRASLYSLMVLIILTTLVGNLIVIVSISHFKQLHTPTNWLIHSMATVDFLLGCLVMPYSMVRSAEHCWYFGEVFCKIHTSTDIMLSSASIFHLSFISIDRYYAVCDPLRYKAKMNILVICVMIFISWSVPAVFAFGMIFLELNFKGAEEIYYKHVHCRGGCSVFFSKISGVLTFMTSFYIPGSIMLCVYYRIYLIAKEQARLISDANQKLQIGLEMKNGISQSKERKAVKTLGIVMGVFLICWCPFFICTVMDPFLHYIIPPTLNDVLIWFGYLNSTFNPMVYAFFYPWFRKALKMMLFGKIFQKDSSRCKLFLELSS
Chain of Nuclear receptor subfamily 0 group B member 1 (P51843 whole entry): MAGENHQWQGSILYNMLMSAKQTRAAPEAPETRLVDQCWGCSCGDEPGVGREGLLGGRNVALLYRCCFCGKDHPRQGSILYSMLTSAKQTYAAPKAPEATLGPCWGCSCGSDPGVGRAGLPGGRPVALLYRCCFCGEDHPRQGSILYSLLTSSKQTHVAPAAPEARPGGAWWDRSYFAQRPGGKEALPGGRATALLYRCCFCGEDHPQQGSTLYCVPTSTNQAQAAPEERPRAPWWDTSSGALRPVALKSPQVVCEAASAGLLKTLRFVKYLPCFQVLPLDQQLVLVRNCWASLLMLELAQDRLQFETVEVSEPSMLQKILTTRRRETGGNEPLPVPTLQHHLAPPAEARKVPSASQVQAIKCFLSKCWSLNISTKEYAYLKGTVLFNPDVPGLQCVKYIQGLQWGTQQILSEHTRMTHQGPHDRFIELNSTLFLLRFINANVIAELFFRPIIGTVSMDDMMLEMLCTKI
Chain of Disintegrin and metalloproteinase domain-containing protein 17 (P78536 whole entry, the tested form may be a part): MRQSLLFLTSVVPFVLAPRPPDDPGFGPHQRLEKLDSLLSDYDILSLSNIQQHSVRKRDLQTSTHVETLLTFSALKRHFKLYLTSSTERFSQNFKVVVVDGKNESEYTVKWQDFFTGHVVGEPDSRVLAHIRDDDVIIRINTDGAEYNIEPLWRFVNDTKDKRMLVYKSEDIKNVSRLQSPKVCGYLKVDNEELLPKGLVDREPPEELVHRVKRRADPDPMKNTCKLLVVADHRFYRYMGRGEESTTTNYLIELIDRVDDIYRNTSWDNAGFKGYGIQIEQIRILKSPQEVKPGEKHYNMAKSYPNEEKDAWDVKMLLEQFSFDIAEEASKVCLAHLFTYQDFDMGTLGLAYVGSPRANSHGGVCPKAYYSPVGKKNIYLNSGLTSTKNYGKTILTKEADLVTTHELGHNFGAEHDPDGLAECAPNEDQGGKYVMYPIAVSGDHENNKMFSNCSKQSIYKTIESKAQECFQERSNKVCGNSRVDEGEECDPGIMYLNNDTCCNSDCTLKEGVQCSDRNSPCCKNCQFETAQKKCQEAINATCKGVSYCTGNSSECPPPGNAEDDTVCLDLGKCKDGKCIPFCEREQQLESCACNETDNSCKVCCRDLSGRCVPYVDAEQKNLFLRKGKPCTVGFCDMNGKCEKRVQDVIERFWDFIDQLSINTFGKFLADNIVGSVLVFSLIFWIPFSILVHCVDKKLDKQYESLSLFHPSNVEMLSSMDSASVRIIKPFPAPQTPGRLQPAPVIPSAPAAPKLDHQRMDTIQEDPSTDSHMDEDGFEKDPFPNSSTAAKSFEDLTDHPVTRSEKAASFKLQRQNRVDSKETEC
Chain of Beta-galactosidase (Q8VNN2 whole entry): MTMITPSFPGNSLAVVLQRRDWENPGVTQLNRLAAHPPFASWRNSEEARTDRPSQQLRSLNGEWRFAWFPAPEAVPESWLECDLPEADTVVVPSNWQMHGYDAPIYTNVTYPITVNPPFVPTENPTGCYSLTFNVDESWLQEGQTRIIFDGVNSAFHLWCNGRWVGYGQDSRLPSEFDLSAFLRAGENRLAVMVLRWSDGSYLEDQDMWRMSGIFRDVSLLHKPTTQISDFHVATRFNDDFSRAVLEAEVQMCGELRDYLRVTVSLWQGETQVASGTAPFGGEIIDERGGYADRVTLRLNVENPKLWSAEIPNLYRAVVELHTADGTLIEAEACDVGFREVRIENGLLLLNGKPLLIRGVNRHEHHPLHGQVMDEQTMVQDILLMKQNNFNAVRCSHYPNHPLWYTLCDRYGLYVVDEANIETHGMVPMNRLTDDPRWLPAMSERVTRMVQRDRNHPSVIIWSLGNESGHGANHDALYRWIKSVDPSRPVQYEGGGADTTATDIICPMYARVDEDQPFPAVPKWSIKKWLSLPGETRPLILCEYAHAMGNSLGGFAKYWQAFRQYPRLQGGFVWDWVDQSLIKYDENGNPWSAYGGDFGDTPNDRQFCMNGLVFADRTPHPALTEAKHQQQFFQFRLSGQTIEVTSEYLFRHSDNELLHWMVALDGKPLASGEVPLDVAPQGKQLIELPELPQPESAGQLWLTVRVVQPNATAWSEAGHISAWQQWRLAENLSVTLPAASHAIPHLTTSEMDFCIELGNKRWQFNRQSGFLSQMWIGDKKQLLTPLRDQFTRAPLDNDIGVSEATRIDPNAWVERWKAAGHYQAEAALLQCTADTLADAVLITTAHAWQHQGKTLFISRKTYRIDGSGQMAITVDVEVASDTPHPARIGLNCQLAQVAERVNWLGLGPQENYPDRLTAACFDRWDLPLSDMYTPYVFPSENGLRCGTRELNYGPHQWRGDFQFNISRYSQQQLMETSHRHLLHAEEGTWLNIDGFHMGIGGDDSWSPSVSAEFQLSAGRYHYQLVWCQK
Chain of Protein Wnt-3a (P27467 whole entry): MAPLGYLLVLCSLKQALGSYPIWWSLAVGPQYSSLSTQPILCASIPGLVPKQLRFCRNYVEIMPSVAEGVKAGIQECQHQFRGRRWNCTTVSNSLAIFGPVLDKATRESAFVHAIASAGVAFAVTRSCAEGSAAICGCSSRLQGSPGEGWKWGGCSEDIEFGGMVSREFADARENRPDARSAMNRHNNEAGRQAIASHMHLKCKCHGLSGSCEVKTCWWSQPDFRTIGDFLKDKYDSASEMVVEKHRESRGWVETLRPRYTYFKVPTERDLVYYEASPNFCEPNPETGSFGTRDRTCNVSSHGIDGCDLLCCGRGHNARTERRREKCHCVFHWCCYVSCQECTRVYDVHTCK
Chain of Nonstructural protein 1 (Q194T2 whole entry): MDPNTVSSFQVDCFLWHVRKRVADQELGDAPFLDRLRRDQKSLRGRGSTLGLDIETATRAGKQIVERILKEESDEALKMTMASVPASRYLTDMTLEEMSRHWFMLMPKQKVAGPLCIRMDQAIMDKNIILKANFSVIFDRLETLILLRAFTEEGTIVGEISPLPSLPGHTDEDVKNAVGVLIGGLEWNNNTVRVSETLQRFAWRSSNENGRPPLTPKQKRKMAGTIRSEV
Chain of SWI/SNF-related matrix-associated actin-dependent regulator of chromatin subfamily A member 2 (P51531 whole entry): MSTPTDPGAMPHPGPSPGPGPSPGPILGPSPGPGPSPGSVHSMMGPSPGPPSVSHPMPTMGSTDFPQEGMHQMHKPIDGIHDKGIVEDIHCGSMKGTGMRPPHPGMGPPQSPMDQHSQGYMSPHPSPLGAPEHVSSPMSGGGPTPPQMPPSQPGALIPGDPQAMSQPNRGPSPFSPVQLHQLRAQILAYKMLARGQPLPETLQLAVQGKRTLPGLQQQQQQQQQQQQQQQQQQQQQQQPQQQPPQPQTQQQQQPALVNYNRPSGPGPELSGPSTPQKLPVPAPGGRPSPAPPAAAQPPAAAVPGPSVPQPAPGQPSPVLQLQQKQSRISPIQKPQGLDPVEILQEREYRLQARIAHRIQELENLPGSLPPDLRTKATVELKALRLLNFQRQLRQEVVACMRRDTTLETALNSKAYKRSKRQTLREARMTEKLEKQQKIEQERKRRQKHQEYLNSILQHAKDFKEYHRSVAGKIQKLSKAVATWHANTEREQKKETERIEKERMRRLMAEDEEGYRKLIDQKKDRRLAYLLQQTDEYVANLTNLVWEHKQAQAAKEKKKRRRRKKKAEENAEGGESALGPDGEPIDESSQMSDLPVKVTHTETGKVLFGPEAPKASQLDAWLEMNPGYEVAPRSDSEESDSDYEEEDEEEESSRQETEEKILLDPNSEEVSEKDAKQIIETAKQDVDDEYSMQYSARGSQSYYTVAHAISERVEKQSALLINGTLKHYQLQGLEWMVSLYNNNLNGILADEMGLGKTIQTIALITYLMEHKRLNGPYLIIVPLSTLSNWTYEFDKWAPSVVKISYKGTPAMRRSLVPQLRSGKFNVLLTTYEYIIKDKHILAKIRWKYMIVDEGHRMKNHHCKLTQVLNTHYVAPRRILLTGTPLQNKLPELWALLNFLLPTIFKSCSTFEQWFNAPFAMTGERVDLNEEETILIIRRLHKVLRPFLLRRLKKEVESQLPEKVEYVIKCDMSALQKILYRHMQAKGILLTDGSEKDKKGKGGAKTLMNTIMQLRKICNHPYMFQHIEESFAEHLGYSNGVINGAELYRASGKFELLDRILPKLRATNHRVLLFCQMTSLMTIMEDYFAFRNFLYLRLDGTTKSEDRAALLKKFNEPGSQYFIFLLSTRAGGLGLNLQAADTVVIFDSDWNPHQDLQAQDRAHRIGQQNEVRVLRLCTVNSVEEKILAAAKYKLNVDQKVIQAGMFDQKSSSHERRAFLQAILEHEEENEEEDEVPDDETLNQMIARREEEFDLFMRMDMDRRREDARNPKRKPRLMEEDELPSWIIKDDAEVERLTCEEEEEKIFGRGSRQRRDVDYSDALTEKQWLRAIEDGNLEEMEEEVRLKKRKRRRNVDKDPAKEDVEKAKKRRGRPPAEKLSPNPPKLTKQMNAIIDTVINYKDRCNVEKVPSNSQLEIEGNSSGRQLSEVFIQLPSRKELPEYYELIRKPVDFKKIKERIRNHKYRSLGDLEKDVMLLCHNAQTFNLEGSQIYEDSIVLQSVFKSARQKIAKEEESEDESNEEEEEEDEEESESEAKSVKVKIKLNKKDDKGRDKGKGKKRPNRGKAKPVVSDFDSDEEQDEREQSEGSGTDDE

## O=C(Nc1cc(N2CCNCC2)ncn1)c1ccccc1
Protein Wnt-3a
  IC50: > 21.8 µM (inactive)

## Cc1ccc2c(c1)cc(CN(Cc1ccco1)C(=O)N1CCOCC1)c1nnnn12
[1]
  EC50: > 91.2 µM (inactive)
[2]
  EC50: > 91.2 µM (inactive)

## CC(C)Oc1[nH]cnc2c3ccccc3nc1-2
[3]
  AC50: 9.38 µM (active)

## Cc1ccc2cc(CNCCc3ccccc3C)c(O)nc2c1
Cells [4]
  IC50: > 29.9 µM (inactive)
[5]
  EC50: 2.34 µM (active)
[6]
  IC50: 3.54 µM (active)
Cells [7]
  EC50: > 29.9 µM (inactive)

## CCC(=O)N1CC[C@@H]2[C@H]1c1cc(-c3ccccc3)ccc1N(C)[C@@H]2CO
[8]
  AC50: 8.49 µM (active)

## Cc1ccc2oc(C(=O)N3CCC(O)(c4ccccc4)CC3)c(C)c2c1
Beta-galactosidase
  IC50: > 80 µM (inactive)

## C[C@@H]1CN([C@H](C)CO)C(=O)c2cc(NC(=O)Cc3cn(C)c4ccccc34)ccc2O[C@H]1CN(C)S(=O)(=O)c1ccc(Cl)cc1
[9]
  AC50: 0.0155 µM (active)
[10]
  AC50: 0.0313 µM (active)

## Nc1nc(-c2ccccc2)c(N=Nc2ccccc2Cl)s1
[11]
  EC50: > 160 µM (inactive)
[12]
  EC50: 4.78 µM (active)
Nonstructural protein 1
  IC50: 9.93 µM (active)
[13]
  IC50: 28 µM (inactive)
[14]
  IC50: 8.65 µM (active)
[15]
  IC50: > 69.5 µM (inactive)

## O=C(Cc1ccccc1)Nc1nc2c(s1)CCCC2
[16]
  IC50: 9.33 µM (active)

## CCc1cccc2c(C(=O)CN3C(=O)N(C)C4(CCCCC4)C3=O)c[nH]c12
[17]
  AC50: > 100 µM (inactive)
Cells [18]
  IC50: > 67.5 µM (inactive)
[19]
  IC50: > 67.5 µM (inactive)

## CCC(=O)N1[C@@H]2Cn3c(cccc3=O)[C@H]1[C@@H](C(=O)NCc1ccccc1)[C@@H]2CO
HEK293
  AC50: 30.2 µM (active)
[20]
  AC50: 30.2 µM (active)

## Cc1ccccc1-c1ccc([C@H]2[C@H](CO)N3CCCCN(CC4CC4)C[C@@H]23)cc1
[21]
  AC50: 3.99 µM (active)

## Cc1cccc(N=[N+]([O-])c2cccc(C)n2)n1
A549
  AC50: 34.5 µM (active)
